Experiments:
Assay type in all cases: cell-based
human platelet [1] = assay: PGE2 effect on human platelet aggregation and dense granule release, light transmission aggregometry; details: agonist concentrations producing full activation of the platelets (max); even micromolar PGE2; FIG. 1
human platelet [2] = assay: as above
Source text: (§1) This Examples describes a study conducted to characterize the regulation of thromboxane-dependent human platelet activation by PGE2, and particularly nanomolar concentrations of PGE2. Platelets were collected from individuals and studied by light transmission aggregometry. Next, it was observed how low nanomolar concentrations of PGE2 effect aggregation and dense granule release induced by sub-maximal concentrations of an agonist of the thromboxane receptor (U46,619), thrombin, collagen, and ADP.

thromboxane receptor = target: T1, thromboxane receptor (Homo sapiens, UniProt P21731); assay: U46,619 dose-response (aggregation, ATP release) in responder and non-responder samples; details: responders vs non-responders; FIG. 4
T1 construct: Platelets were collected from individuals and studied by light transmission aggregometry; endogenous in cells; host or cells: human platelets from responder and non-responder individuals
T1 sequence (P21731 1-343): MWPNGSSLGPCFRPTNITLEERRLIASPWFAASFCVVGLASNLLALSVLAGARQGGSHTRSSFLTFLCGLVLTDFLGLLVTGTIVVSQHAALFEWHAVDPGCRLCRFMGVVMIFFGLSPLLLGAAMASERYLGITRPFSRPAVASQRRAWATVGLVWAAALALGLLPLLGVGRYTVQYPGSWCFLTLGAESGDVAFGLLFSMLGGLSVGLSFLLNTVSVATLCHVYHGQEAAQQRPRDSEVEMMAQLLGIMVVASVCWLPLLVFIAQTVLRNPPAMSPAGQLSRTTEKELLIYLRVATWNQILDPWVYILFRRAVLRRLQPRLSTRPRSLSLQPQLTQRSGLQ
Source text: FIG. 4 includes plots of maximal aggregation (left) and ATP release (right) as a function of U46,610 concentration for both responder and non-responder individuals, and showing that there is little to no difference in U46,619 dose-response between the different phenotypic groups.
as §1
Samples from responders and non-responders were also exposed to different doses of U46,619.

Which “effect on aggregation or granule release” value (human platelet [1]) does the source give for `CCCCC[C@H](O)/C=C/[C@H]1[C@H](O)CC(=O)[C@@H]1C/C=C\CCCC(=O)O` [PGE2, prostaglandin E2] here?
Its value is “did not affect either aggregation or granule release”.

What about the “individuals with strong inhibition of platelet activity in response to PGE2” value (human platelet [2]; 76 individuals, FIG. 2) of the same compound?
Its value is “approximately 28%”.

And the “individuals without significant inhibition of platelet aggregation in response to PGE2 (non-responders)” value (human platelet [2]; 76 individuals, FIG. 2)?
Its value is 55%.

What about the “partial responders to PGE2” value (human platelet [2]; 76 individuals, FIG. 2) of the same compound?
The value was 17%.

What about the “effect on ADP-induced aggregation” value (human platelet [2]; FIG. 5) of the same compound?
Its value is “no effect”.

And the “effect on U46,610 aggregation” value (human platelet [2]; FIG. 5)?
The value was “did have an effect”.

What about the “effect on collagen-induced aggregation” value (human platelet [2]; FIG. 5) of the same compound?
Its value is “no effect”.

What about the “individuals in whom PGE2 affected the timing but not the final magnitude of aggregation (partial responders)” value (human platelet [2]; nanomolar PGE2) of the same compound?
The value was “approximately 31%”.

What about the “individuals in whom PGE2 did not have detectable effects (nonresponders)” value (human platelet [2]; nanomolar PGE2) of the same compound?
Its value is “approximately 42%”.

And the “individuals in whom PGE2 inhibits platelet aggregation (responders)” value (human platelet [2]; nanomolar PGE2, aggregation induced by U46,619 and PAR4-AP)?
Its value is “approximately 26%”.

And the “aggregation and dense granule release induced by sub-maximal U46,619 and thrombin” value (human platelet [2]; nanomolar PGE2, responder populations, FIG. 3)?
Its value is “capable of preventing aggregation and dense granule release”.

How did the “difference in U46,619 dose-response between phenotypic groups” value (thromboxane receptor) turn out when `CCCCC[C@H](O)/C=C/[C@@H]1[C@@H](C/C=C\CCCC(=O)O)[C@H]2CO[C@@H]1C2` [U46,619] was run?
Its value is “No significant no difference”.
